Biological target: JMJD2C (Homo sapiens (Human), UniProt Q9H3R0)
Assay: JMJD2C in vitro enzyme inhibition assay (TR-FRET)
Type: biochemical
Conditions: 0.3 nM JMJD2C, 300 nM H3K9me3-biotin peptide, 2 μM alpha-ketoglutaric acid
From the text: This assay determines the ability of a test compound to inhibit Jarid1A, Jarid1B, and JMJD2C demethylase activity. Baculovirus expressed Jarid1A (GenBank Accession #NM_001042603, AA1-1090) was purchased from BPS Bioscience (Cat#50110). Baculovirus expressed Jarid1B (GenBank Accession #NM_006618, AA 2-751) was purchased from BPS Bioscience (Cat #50121) or custom made by MolecularThroughput. Baculovirus expressed JMJD2C (GenBank Accession #BC143571, AA 2-372) was purchased from BPS Bioscience (Cat#50105).
The ability of test compounds to inhibit the activity of JMJD2C was determined in 384-well plate format under the following reaction conditions: 0.3 nM JMJD2C, 300 nM H3K9me3-biotin labeled peptide (Anaspec cat #64360), 2 μM alpha-ketoglutaric acid in assay buffer of 50 mM HEPES, pH7.3, 0.005% Brij35, 0.5 mM TCEP, 0.2 mg/ml BSA, 50 μM sodium L-ascorbate, and 2 μM ammonium iron(II) sulfate. Reaction product was determined quantitatively by TR-FRET after the addition of detection reagent Phycolink Streptavidin-allophycocyanin (Prozyme) and Europium-anti-di-methylated histone H3 lysine 9 (H3K9me2) antibody (PerkinElmer) in the presence of 5 mM EDTA in LANCE detection buffer (PerkinElmer) at a final concentration of 50 nM and 1 nM, respectively.
The reaction mixture was incubated at room temperature for 30 minutes, and terminated by the addition of 6 μl of 5 mM EDTA in LANCE detection buffer containing 100 nM Phycolink Streptavidin-allophycocyanin and 2 nM Europium-anti-H3K9me2 antibody. Plates were read by EnVisionMultilabel Reader in TR-FRET mode (excitation at 320 nm, emission at 615 nm and 665 nm) after 1 hour incubation at room temperature. A ratio was calculated (665/615) for each well and fitted to determine inhibition constant (IC50).

JMJD2C, sequence (Q9H3R0 2-372): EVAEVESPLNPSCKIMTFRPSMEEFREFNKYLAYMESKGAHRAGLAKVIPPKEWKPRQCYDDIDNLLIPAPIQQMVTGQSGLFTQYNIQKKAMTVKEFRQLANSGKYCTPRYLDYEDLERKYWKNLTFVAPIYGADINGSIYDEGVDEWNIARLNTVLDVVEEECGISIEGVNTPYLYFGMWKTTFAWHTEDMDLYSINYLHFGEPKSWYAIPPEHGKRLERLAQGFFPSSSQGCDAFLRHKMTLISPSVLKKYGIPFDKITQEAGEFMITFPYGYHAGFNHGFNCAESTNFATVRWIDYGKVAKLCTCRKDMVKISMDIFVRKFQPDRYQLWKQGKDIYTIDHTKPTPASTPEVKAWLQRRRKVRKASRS

Compound	IC50
O=C(O)c1ccnnc1NCC1CCCc2cc(OCCC(F)(F)F)ccc21 (stereo not drawn) [Example 101, 3-({[6-(3,3,3-trifluoropropoxy)-1,2,3,4-tetrahydronaphthalen-1-yl]methyl}amino)pyridazine-4-carboxylic acid]	100 to 1000 nM
COc1ccc2c(c1)CCC[C@H]2CNc1cnccc1C(=O)O [Example 62, 3-({[(1R)-6-methoxy-1,2,3,4-tetrahydronaphthalen-1-yl]methyl}amino)pyridine-4-carboxylic acid]	100 to 1000 nM
O=C(O)c1ccncc1NCC1CCCc2c(OCC3CC3)cccc21 (stereo not drawn) [Example 76]	1000 to 10000 nM
O=C(O)c1ccncc1NCC1(O)CCCc2c(F)cccc21 (stereo not drawn) [Example 55, 3-{[(5-fluoro-1-hydroxy-1,2,3,4-tetrahydronaphthalen-1-yl)methyl]amino}pyridine-4-carboxylic acid]	100 to 1000 nM
O=C(O)c1ccncc1NC[C@@H]1CCCc2c(F)cccc21 [Example 57, 3-({[(1R)-5-fluoro-1,2,3,4-tetrahydronaphthalen-1-yl]methyl}amino)pyridine-4-carboxylic acid]	100 to 1000 nM
Cc1cc(C)c2c(c1)C(CNc1cnccc1C(=O)O)CCC2 (stereo not drawn) [Example 52, 3-{[(5,7-dimethyl-1,2,3,4-tetrahydronaphthalen-1-yl)methyl]amino}pyridine-4-carboxylic acid]	1000 to 10000 nM
COc1ccc2c(c1F)CCCC2CNc1cnccc1C(=O)O (stereo not drawn) [Example 102, 3-{[(5-fluoro-6-methoxy-1,2,3,4-tetrahydronaphthalen-1-yl)methyl]amino}pyridine-4-carboxylic acid]	100 to 1000 nM
O=C(O)c1ccncc1NCC1CCCc2ccc(-c3ccccc3)cc21 (stereo not drawn) [Example 73, 3-{[(7-phenyl-1,2,3,4-tetrahydronaphthalen-1-yl)methyl]amino}pyridine-4-carboxylic acid]	100 to 1000 nM
O=C(O)c1ccncc1NCC1CCSc2ccccc21 (stereo not drawn) [Example 78, 3-[(3,4-dihydro-2H-thiochromen-4-ylmethyl)amino]pyridine-4-carboxylic acid]	100 to 1000 nM
O=C(O)c1ccncc1NCC1CCCc2cc(OCCC(F)(F)F)ccc21 (stereo not drawn) [Example 79]	100 to 1000 nM
CC1(C)CCC(CNc2cnccc2C(=O)O)c2ccccc21 (stereo not drawn) [Example 59, 3-{[(4,4-dimethyl-1,2,3,4-tetrahydronaphthalen-1-yl)methyl]amino}pyridine-4-carboxylic acid]	100 to 1000 nM
O=C(O)c1ccncc1NCC1=CCCc2ccc(F)cc21 [Example 51, 3-{[(7-fluoro-3,4-dihydronaphthalen-1-yl)methyl]amino}pyridine-4-carboxylic acid]	100 to 1000 nM
O=C(O)c1ccncc1NC[C@H]1CCCc2c(F)cccc21 [Example 56, 3-({[(1S)-5-fluoro-1,2,3,4-tetrahydronaphthalen-1-yl]methyl}amino)pyridine-4-carboxylic acid]	≤ 100 nM
O=C(O)c1ccncc1NCC1CCOc2c(F)cccc21 (stereo not drawn) [Example 71, 3-{[(8-fluoro-3,4-dihydro-2H-chromen-4-yl)methyl]amino}pyridine-4-carboxylic acid]	≤ 100 nM
CC(C)Oc1ccc2c(c1)CCCC2CNc1cnccc1C(=O)O (stereo not drawn) [Example 64]	100 to 1000 nM
CC(C)Oc1ccc(CNc2cnccc2C(=O)O)cc1 [Example 11, 3-{[4-(propan-2-yloxy)benzyl]amino}pyridine-4-carboxylic acid]	100 to 1000 nM
COc1ccc2c(c1)CCC[C@@H]2CNc1cnccc1C(=O)O [Example 61, 3-({[(1S)-6-methoxy-1,2,3,4-tetrahydronaphthalen-1-yl]methyl}amino)pyridine-4-carboxylic acid]	100 to 1000 nM
O=C(O)c1ccncc1NC[C@H]1CCCc2cc(OCCC(F)(F)F)ccc21 [Example 99, 3-({[(1S)-6-(3,3,3-trifluoropropoxy)-1,2,3,4-tetrahydronaphthalen-1-yl]methyl}amino)pyridine-4-carboxylic acid]	100 to 1000 nM
3-{[(6-chloro-1-hydroxy-1,2,3,4- tetrahydronaphthalen-1- yl)methyl]amino}pyridine-4-carboxylic acid [Example 67]	100 to 1000 nM
O=C(O)c1ccncc1NCC1CCOc2cc(F)ccc21 (stereo not drawn) [Example 70, 3-{[(7-fluoro-3,4-dihydro-2H-chromen-4-yl)methyl]amino}pyridine-4-carboxylic acid]	100 to 1000 nM
3-{[(6-chloro-1,2,3,4-tetrahydronaphthalen-1- yl)methyl]amino}pyridine-4-carboxylic acid [Example 68]	100 to 1000 nM
O=C(O)c1ccncc1NCC1CCCc2ccc(Cl)cc21 (stereo not drawn) [Example 72, 3-{[(7-chloro-1,2,3,4-tetrahydronaphthalen-1-yl)methyl]amino}pyridine-4-carboxylic acid]	100 to 1000 nM
O=C(O)c1ccncc1NCC1CCOc2cc(C3CC3)ccc21 (stereo not drawn) [Example 75, 3-{[(7-cyclopropyl-3,4-dihydro-2H-chromen-4-yl)methyl]amino}pyridine-4-carboxylic acid]	100 to 1000 nM

Results, then the compound that gave them:

IC50	Compound
100 to 1000 nM	O=C(O)c1ccncc1NC[C@H]1CCCc2cc(OCCC3CC3)ccc21 [Example 97, 3-({[(1S)-6-(2-cyclopropylethoxy)-1,2,3,4-tetrahydronaphthalen-1-yl]methyl}amino)pyridine-4-carboxylic acid]
1000 to 10000 nM	O=C(O)c1ccncc1NC[C@@H]1CCOc2cc(-c3cccc(F)c3)ccc21 [Example 86, 3-({[(4R)-7-(3-fluorophenyl)-3,4-dihydro-2H-chromen-4-yl]methyl}amino)pyridine-4-carboxylic acid]
100 to 1000 nM	O=C(O)c1ccncc1NC[C@H]1CCOc2cc(-c3ccc(F)cc3)ccc21 [Example 93, 3-({[(4S)-7-(4-fluorophenyl)-3,4-dihydro-2H-chromen-4-yl]methyl}amino)pyridine-4-carboxylic acid]
100 to 1000 nM	O=C(O)c1ccncc1NCC1CCCc2cc(OCC(F)(F)F)ccc21 (stereo not drawn) [Example 90, 3-({[6-(2,2,2-trifluoroethoxy)-1,2,3,4-tetrahydronaphthalen-1-yl]methyl}amino)pyridine-4-carboxylic acid]
100 to 1000 nM	O=C(O)c1ccncc1NC[C@@H]1CCOc2cc(-c3ccccc3)ccc21 [Example 84, 3-({[(4R)-7-phenyl-3,4-dihydro-2H-chromen-4-yl]methyl}amino)pyridine-4-carboxylic acid]
1000 to 10000 nM	O=C(O)c1ccncc1NCC1CCCc2cc(OC(F)(F)F)ccc21 (stereo not drawn) [Example 92, 3-({[6-(trifluoromethoxy)-1,2,3,4-tetrahydronaphthalen-1-yl]methyl}amino)pyridine-4-carboxylic acid]
1000 to 10000 nM	O=C(O)c1ccncc1NC[C@@H]1CCOc2cc(-c3ccc(F)cc3)ccc21 [Example 94, 3-({[(4R)-7-(4-fluorophenyl)-3,4-dihydro-2H-chromen-4-yl]methyl}amino)pyridine-4-carboxylic acid]
1000 to 10000 nM	O=C(O)c1ccncc1NC[C@@H]1CCCc2cc(OCCC3CC3)ccc21 [Example 98, 3-({[(1R)-6-(2-cyclopropylethoxy)-1,2,3,4-tetrahydronaphthalen-1-yl]methyl}amino)pyridine-4-carboxylic acid]
100 to 1000 nM	O=C(O)c1ccncc1NC[C@H]1CCOc2cc(-c3ccccc3)ccc21 [Example 83, 3-({[(4S)-7-phenyl-3,4-dihydro-2H-chromen-4-yl]methyl}amino)pyridine-4-carboxylic acid]
100 to 1000 nM	Cc1ccc2c(c1C)CCCC2CNc1cnccc1C(=O)O (stereo not drawn) [Example 103, 3-{[(5,6-dimethyl-1,2,3,4-tetrahydronaphthalen-1-yl)methyl]amino}pyridine-4-carboxylic acid]
100 to 1000 nM	O=C(O)c1ccncc1NC[C@H]1CCOc2cc(-c3cccc(F)c3)ccc21 [Example 85, 3-({[(4S)-7-(3-fluorophenyl)-3,4-dihydro-2H-chromen-4-yl]methyl}amino)pyridine-4-carboxylic acid]
≤ 100 nM	O=C(O)c1ccncc1NC[C@H]1CCOc2cc(C3CC3)ccc21 [Example 87, 3-({[(4S)-7-cyclopropyl-3,4-dihydro-2H-chromen-4-yl]methyl}amino)pyridine-4-carboxylic acid]
100 to 1000 nM	O=C(O)c1ccncc1NCC1CCCc2cc(OCC3CC3)ccc21 (stereo not drawn) [Example 81]
100 to 1000 nM	O=C(O)c1ccncc1NC[C@H]1CCOc2cc(-c3ccccc3F)ccc21 [Example 95, 3-({[(4S)-7-(2-fluorophenyl)-3,4-dihydro-2H-chromen-4-yl]methyl}amino)pyridine-4-carboxylic acid]
100 to 1000 nM	CN1CCC(CNc2cnccc2C(=O)O)c2ccccc21 (stereo not drawn) [Example 82, 3{[(1-methyl-1,2,3,4-tetrahydroquinolin-4-yl)methyl]amino}pyridine-4-carboxylic acid]
1000 to 10000 nM	O=C(O)c1ccncc1NC[C@@H]1CCOc2cc(-c3ccccc3F)ccc21 [Example 96, 3-({[(4R)-7-(2-fluorophenyl)-3,4-dihydro-2H-chromen-4-yl]methyl}amino)pyridine-4-carboxylic acid]

From US9611221B2, “Histone demethylase inhibitors” (CELGENE QUANTICEL RESEARCH, INC., priority 2012, dated 2017)
